The values that follow come from ChEMBL document CHEMBL1152560, “Substituted 2-arylbenzothiazoles as kinase inhibitors: hit-to-lead optimization” (Bioorg Med Chem, 2009).

In test [1] the target is MAP kinase-activated protein kinase 3 (Homo sapiens) (UniProt Q16644). Description: Residual activity of MAPKAPK3 at 0.1 uM by microplate scintillation counting.
Test [2] concerns the target T1, Inhibitor of nuclear factor kappa-B kinase subunit alpha (Homo sapiens) (UniProt O15111).
T1 sequence (whole entry): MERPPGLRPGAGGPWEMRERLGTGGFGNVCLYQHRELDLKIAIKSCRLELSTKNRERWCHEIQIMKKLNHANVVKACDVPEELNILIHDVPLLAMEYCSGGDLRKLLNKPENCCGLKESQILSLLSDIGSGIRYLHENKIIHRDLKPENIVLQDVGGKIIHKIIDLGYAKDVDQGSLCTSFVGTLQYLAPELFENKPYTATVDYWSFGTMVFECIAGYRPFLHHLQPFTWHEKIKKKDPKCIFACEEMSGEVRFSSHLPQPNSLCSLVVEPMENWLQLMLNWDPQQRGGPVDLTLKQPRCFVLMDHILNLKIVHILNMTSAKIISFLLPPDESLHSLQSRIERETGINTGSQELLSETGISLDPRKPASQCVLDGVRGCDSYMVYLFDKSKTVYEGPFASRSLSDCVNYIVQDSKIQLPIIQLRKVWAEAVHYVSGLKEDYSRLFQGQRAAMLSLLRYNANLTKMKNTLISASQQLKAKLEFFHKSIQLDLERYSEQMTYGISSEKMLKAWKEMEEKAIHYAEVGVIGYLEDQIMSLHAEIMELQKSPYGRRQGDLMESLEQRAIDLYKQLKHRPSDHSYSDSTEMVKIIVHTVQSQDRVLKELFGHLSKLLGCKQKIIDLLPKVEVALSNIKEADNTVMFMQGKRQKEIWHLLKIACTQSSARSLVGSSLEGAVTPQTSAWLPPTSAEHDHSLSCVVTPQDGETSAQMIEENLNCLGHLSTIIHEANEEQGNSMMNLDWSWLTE
Description: Residual activity of IKKalpha at 1 uM by microplate scintillation counting.

Test [3] deals with Receptor tyrosine-protein kinase erbB-4 (Homo sapiens) (UniProt Q15303). Kind of test: Residual activity of ERBB4 at 10 uM by microplate scintillation counting.
Chain of Receptor tyrosine-protein kinase erbB-4 (Homo sapiens) (Q15303 whole entry): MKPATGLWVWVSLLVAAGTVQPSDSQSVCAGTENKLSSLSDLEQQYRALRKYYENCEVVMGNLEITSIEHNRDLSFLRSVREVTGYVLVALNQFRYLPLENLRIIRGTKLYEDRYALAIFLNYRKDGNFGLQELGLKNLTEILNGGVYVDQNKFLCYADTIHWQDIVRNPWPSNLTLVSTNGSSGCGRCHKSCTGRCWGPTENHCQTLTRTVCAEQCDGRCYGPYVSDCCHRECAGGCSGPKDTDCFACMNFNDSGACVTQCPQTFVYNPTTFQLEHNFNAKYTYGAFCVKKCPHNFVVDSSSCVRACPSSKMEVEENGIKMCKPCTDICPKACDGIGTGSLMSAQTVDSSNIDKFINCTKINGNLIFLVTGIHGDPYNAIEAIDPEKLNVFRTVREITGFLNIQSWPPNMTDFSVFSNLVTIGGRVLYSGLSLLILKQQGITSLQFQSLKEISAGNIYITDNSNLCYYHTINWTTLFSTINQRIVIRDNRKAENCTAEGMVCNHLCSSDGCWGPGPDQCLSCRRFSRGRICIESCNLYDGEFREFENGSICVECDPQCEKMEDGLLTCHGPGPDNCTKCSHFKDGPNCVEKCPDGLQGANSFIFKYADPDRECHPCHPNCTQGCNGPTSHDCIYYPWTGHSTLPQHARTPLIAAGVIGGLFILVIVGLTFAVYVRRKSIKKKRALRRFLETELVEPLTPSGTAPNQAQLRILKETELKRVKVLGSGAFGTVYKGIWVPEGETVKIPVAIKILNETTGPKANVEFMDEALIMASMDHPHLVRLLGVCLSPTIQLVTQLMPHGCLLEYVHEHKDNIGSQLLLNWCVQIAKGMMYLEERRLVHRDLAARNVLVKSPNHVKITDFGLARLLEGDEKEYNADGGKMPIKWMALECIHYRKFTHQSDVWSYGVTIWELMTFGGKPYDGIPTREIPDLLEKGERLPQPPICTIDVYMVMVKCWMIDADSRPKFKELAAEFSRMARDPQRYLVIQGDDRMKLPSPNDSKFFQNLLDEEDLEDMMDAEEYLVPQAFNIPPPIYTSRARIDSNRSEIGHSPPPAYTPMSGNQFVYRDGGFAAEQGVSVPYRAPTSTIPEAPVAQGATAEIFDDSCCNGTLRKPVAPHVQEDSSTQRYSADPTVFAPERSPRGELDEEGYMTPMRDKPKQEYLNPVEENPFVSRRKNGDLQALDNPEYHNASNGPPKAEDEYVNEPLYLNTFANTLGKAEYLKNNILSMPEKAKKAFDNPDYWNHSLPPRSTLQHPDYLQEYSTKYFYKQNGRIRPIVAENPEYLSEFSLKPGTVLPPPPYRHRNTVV
Test [4] addresses Cyclin-dependent kinase 5/CDK5 activator 1 (Homo sapiens) (UniProt Q00535+Q15078). Description: Residual activity of CDK5/p25NCK at 1 uM by microplate scintillation counting. Type of test: protein-complex assay.
The target of test [5] is Ribosomal protein S6 kinase alpha-5 (Homo sapiens) (UniProt O75582). Description: Residual activity of RPS6KA5 at 10 uM by microplate scintillation counting.
Chain of Ribosomal protein S6 kinase alpha-5 (Homo sapiens) (O75582 whole entry, looked up): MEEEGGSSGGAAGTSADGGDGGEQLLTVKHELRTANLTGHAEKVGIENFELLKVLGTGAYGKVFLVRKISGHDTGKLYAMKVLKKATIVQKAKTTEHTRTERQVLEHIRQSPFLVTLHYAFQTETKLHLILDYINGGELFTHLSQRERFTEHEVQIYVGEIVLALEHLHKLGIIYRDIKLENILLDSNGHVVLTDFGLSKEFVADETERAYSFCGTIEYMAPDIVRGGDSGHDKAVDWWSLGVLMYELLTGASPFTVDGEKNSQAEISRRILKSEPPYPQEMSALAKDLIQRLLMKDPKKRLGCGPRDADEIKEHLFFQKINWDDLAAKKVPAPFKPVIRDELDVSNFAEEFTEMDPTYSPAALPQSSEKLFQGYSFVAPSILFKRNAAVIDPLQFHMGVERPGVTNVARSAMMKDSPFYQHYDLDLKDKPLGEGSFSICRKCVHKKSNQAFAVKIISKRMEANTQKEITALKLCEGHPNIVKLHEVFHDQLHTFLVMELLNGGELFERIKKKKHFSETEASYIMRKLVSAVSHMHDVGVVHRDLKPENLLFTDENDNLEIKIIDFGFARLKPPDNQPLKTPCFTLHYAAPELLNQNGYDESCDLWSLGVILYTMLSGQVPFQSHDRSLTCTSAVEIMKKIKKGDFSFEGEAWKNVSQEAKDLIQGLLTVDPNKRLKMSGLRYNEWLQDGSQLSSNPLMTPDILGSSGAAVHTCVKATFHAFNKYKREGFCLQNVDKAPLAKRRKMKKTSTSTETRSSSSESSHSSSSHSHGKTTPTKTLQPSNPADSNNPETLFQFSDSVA
Test [6] addresses Insulin receptor-related protein (Homo sapiens) (UniProt P14616). Description: Residual activity of INSRR at 10 uM by microplate scintillation counting.
Test [7] addresses T2, Ephrin type-A receptor 8 (Homo sapiens) (UniProt P29322).
T2 sequence (whole entry): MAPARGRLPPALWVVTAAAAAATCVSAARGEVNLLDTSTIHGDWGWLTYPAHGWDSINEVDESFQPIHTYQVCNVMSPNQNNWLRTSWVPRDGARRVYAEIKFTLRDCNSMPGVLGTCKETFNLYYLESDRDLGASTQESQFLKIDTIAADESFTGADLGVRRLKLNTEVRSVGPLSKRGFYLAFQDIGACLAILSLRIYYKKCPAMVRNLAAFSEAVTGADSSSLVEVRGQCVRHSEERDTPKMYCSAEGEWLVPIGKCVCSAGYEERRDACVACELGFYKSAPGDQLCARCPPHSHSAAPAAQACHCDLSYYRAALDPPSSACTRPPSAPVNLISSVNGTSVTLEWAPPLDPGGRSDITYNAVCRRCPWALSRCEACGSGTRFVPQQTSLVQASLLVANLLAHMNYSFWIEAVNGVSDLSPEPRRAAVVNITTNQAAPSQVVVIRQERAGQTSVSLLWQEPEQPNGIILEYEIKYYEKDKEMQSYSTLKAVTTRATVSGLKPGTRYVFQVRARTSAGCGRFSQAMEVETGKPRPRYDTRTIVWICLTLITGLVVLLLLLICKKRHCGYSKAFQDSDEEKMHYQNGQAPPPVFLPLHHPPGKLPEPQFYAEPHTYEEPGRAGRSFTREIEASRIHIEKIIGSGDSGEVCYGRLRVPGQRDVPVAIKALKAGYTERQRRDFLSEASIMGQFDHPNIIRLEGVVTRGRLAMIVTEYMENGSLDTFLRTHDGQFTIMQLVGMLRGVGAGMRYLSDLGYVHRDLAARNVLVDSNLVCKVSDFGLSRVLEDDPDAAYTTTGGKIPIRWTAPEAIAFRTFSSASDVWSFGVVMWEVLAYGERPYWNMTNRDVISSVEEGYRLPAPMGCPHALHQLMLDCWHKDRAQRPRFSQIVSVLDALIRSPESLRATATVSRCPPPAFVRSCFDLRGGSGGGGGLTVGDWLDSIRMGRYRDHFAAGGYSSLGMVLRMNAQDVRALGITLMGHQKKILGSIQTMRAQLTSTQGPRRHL
Description: Residual activity of EPHA8 at 10 uM by microplate scintillation counting.

In test [8] the target is T3, Serine/threonine-protein kinase NLK (Homo sapiens) (UniProt Q9UBE8).
T3 sequence (whole entry): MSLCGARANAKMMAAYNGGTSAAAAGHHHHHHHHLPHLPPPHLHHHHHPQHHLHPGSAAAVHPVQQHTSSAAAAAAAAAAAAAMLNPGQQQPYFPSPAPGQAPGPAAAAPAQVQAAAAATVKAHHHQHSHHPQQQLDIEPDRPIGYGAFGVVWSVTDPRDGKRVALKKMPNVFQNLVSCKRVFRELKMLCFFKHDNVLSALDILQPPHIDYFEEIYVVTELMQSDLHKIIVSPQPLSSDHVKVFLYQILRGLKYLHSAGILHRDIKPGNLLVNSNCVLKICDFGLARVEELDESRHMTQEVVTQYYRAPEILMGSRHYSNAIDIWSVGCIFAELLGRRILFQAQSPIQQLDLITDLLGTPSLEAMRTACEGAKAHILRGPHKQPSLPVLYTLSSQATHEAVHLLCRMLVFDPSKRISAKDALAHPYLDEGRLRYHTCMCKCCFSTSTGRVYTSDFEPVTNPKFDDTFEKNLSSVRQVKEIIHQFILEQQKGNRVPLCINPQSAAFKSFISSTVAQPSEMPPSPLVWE
Description: Residual activity of NLK at 10 uM by microplate scintillation counting.

The target in test [9] is CDK3/cyclin E (Homo sapiens) (UniProt P24864+O96020+Q00526). Description: Residual activity of CDK3/Cyclin E at 0.1 uM by microplate scintillation counting. Format: protein-complex assay.
Chain of CDK3/cyclin E (Homo sapiens) (O96020 whole entry, looked up): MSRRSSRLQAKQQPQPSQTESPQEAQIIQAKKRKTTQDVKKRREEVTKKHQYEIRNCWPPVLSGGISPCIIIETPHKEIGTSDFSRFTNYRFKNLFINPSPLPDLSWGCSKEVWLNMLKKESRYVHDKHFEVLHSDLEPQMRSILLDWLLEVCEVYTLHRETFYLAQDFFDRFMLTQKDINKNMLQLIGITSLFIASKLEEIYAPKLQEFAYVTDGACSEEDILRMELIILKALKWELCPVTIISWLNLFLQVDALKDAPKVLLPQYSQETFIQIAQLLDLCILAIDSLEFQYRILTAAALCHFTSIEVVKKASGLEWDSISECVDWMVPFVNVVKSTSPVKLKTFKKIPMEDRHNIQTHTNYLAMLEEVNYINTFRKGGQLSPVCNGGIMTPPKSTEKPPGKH
Chain of CDK3/cyclin E (Homo sapiens) (P24864 whole entry, looked up): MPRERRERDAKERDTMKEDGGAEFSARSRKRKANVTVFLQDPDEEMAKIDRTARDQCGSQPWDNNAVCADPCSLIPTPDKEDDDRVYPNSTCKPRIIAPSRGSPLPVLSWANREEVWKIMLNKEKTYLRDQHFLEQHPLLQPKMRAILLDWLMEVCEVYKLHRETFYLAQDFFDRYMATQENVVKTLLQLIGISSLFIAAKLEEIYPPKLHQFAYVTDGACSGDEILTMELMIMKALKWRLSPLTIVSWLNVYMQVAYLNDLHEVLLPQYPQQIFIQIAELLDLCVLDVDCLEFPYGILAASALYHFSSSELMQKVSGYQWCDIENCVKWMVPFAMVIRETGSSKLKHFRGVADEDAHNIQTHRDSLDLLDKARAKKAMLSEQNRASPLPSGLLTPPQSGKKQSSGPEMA
Chain of CDK3/cyclin E (Homo sapiens) (Q00526 whole entry, looked up): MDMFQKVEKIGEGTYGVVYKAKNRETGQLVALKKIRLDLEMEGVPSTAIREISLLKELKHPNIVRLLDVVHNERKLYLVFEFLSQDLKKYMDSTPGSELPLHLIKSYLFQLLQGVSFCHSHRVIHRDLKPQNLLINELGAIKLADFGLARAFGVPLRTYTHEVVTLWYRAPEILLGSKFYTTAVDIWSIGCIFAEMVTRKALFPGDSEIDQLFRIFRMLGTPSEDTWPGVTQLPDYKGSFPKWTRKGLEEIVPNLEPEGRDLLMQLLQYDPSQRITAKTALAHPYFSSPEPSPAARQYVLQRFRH
The target in test [10] is Cyclin-dependent kinase 4/cyclin D1 (Homo sapiens) (UniProt P11802+P24385). Description: Residual activity of CDK4/Cyclin D1 at 10 uM by microplate scintillation counting. Type of test: protein-complex assay.
The target of test [11] is Tyrosine-protein kinase SYK (Homo sapiens) (UniProt P43405). Description: Residual activity of SYK at 0.1 uM by microplate scintillation counting.
Test [12] addresses Ribosomal protein S6 kinase alpha-6 (Homo sapiens) (UniProt Q9UK32). Description: Residual activity of RPS6KA6 at 0.1 uM by microplate scintillation counting.

Chain of MAP kinase-activated protein kinase 3 (Homo sapiens) (Q16644 whole entry, looked up): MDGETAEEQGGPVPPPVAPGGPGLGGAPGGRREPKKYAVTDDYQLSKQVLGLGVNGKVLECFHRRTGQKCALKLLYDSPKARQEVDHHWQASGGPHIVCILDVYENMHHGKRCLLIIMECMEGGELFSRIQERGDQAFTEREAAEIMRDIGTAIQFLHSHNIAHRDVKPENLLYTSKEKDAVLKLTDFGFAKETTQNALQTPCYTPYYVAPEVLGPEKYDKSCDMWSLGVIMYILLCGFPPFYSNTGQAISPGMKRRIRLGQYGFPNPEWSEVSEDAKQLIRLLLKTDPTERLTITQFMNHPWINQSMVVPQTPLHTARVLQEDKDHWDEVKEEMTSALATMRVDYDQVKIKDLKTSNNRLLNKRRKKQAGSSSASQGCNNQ
Chain of Ribosomal protein S6 kinase alpha-6 (Homo sapiens) (Q9UK32 whole entry): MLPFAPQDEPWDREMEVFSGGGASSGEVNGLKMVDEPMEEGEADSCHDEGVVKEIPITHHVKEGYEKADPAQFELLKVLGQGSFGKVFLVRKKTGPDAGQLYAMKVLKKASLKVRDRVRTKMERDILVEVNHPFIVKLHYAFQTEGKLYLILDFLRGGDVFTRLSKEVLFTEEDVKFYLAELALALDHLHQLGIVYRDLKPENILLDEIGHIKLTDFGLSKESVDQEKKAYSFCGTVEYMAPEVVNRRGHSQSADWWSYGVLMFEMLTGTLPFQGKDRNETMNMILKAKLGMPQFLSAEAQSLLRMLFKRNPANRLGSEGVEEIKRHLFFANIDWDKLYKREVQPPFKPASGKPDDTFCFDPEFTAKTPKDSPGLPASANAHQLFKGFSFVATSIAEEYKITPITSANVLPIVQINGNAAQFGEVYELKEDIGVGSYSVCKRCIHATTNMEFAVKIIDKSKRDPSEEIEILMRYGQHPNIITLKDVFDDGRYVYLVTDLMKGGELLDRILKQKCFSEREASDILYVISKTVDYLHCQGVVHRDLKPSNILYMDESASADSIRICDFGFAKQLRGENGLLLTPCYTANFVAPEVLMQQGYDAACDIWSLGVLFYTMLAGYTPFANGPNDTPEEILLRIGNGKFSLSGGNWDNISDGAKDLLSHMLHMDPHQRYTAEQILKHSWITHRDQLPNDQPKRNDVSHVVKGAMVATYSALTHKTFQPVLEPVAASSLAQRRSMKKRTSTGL
Chain of Cyclin-dependent kinase 5/CDK5 activator 1 (Homo sapiens) (Q00535 whole entry): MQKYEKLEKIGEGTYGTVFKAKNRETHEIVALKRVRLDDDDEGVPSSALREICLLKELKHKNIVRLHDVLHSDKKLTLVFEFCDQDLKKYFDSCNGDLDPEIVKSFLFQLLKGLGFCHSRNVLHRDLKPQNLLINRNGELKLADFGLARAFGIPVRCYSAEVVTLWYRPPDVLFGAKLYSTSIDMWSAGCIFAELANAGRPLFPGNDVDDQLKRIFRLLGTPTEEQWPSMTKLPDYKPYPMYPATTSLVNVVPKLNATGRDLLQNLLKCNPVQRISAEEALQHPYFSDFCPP
Chain of Cyclin-dependent kinase 5/CDK5 activator 1 (Homo sapiens) (Q15078 99-307 partner limits assumed): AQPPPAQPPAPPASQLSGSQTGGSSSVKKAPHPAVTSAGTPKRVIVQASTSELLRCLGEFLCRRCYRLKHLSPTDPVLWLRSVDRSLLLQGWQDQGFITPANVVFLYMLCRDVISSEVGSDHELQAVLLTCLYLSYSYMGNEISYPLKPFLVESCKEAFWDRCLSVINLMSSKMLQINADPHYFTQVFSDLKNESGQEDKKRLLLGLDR

For the compound `COc1cc2c(Oc3ccc(-c4nc5ccccc5s4)cc3)ncnc2cc1OCCCN1CCCC1`, the residual activity in test [1] came out at 93%; in test [2] it was 95%; in test [3], 116%; in test [4] it was 87%; in [5], 140%; in test [6], 43%. For the same compound, the residual activity in test [7] was 185%; in test [8], 90%; in test [9], 90%; in test [10] it was 101%; in test [11] it was 103%; in [12], 92%.

Consider `COc1cc2c(Oc3ccc(-c4nc5ccccc5s4)cc3F)ncnc2cc1OCCCN1CCN(C)CC1`, for which the residual activity in test [1] was 94%; in test [2] it was 99%; in test [3], 54%; in test [4], 89%; in test [5] it was 151%; in test [6], 7%. In addition, the residual activity in [7] came to 114%; in test [8], 114%; in test [9], 98%; in test [10], 99%; in [11], 97%; in [12], 95%.

With `COc1cc2c(Oc3ccc(-c4nc5ccccc5s4)cc3)ncnc2cc1OCCCN1CCN(C)CC1`, the residual activity in test [1] turned out to be 91%; in test [2], 98%; in test [3], 118%; in [4] it was 82%; in test [5] it was 146%; in test [6], 51%. Moreover, the residual activity in test [7] is 273%; in test [8], 113%; in [9], 86%; in test [10] it was 97%; in [11] it was 96%; in test [12], 96%.
